Test results taken from patent US8629159B2, “Thiazolidinedione analogues” (Metabolic Solutions Development Company, LLC, priority 2006, dated 2014).

Molecular target: T1, PPARγ (Homo sapiens, UniProt P37231)
T1 construct: purchased Invitrogen Corporation, Carlsbad, Calif
T1 sequence (P37231 238-503 limits assumed): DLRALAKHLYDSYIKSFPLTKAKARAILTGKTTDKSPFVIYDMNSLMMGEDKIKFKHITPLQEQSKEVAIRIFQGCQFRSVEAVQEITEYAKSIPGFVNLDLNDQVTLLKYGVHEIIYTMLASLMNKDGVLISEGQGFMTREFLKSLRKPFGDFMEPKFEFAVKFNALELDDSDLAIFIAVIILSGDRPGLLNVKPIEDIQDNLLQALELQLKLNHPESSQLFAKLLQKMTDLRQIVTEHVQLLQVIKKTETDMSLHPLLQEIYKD
Assay: commercial PPARγ binding assay (Invitrogen; PPAR-LBD/Fluormone PPAR Green complex)
Settings: for Binding to PPARγ (Fluormone displacement signal): mean of three experiments
Protocol: The ability of several exemplary compounds of the present invention, shown in Table A, to bind to PPARγ was measured using a commercial binding assay (Invitrogen Corporation, Carlsbad, Calif.) that measures the test compounds ability to bind with PPAR-LBD/Fluormone PPAR Green complex. These assays were performed on three occasions with each assay using four separate wells (quadruplicate) at each concentration of tested compound. The data are mean and SEM of the values obtained from the three experiments. […] Compounds were added at the concentrations shown, which range from 0.1-100 micromolar.

| SMILES | Binding to PPARγ (Fluormone displacement signal) (1 μM compound) | Binding to PPARγ (Fluormone displacement signal) (3 μM compound) | Binding to PPARγ (Fluormone displacement signal) (10 μM compound) | Binding to PPARγ (Fluormone displacement signal) (50 μM compound) | Binding to PPARγ (Fluormone displacement signal) (100 μM compound) | Binding to PPARγ (Fluormone displacement signal) (.1 μM compound) | Binding to PPARγ (Fluormone displacement signal) (.3 μM compound) | binding to PPARγ (in words) (FIG. 1 and Table B) |
| --- | --- | --- | --- | --- | --- | --- | --- | --- |
| CCc1ccc(CCOc2ccc(CC3(C)SC(=O)NC3=O)cc2)nc1 (single isomer, unassigned) [Compound 4] | 234 | 224 | 200 | 122 | 91 | 236 | 230 |  |
| CCc1ccc(CCOc2ccc(CC3(C)SC(=O)NC3=O)cc2)nc1 (single isomer, unassigned) [Compound 6] | 233 | 223 | 198 | 126 | 99 | 246 | 246 |  |
| CCc1ccc(CCOc2ccc(CC3(C)SC(=O)NC3=O)cc2)nc1 (single isomer, unassigned) [Compound 7] | 248 | 237 | 210 | 144 | 105 | 249 | 246 |  |
| CCc1ccc([C@@H](O)COc2ccc(CC3SC(=O)NC3=O)cc2)nc1 (stereo partly shown) [Compound 2] | 238 | 236 | 223 | 162 | 136 | 231 | 233 | particularly poor binders |
| CCc1ccc([C@H](O)COc2ccc(CC3SC(=O)NC3=O)cc2)nc1 (stereo partly shown) [Compound 3] | 203 | 185 | 134 | 88 | 77 | 226 | 221 |  |
| CCc1ccc(C(O)COc2ccc(CC3(C)SC(=O)NC3=O)cc2)nc1 (stereo not shown) [Compound 5] | 228 | 226 | 212 | 132 | 106 | 235 | 230 |  |
| CCc1ccc([C@@H](O)COc2ccc(CC3(C)SC(=O)NC3=O)cc2)nc1 (stereo partly shown) [Compound 8] | 239 | 241 | 233 | 199 | 186 | 237 | 243 |  |
| CCc1ccc([C@H](O)COc2ccc(CC3(C)SC(=O)NC3=O)cc2)nc1 (stereo partly shown) [Compound 9] | 239 | 233 | 234 | 189 | 164 | 237 | 237 |  |
| CCc1ccc(C(=O)COc2ccc(CC3(C)SC(=O)NC3=O)cc2)nc1 (stereo not shown) [Compound 10] | 240 | 234 | 219 | 126 | 93 | 245 | 239 |  |
